Laboratory results from patent publication US5824668A, “Formulation for administration of steroid compounds” (priority 1996, dated 1998).
Entries after “also recorded” stand apart in the source; their conditions may differ.

Assays:
[1] = Optical density of ET and ED dissolved in hydroxypropyl-β-cyclodextrin solutions; format: physicochemical
Method: The optical density (OD) of the ET and ED dissolved in hydroxypropyl-β-cyclodextrin solutions was determined at 400 NM against a blank control containing water and set at an OD of 0.0.

[2] = cited from earlier work; for conversion in serum: normal and obese subjects, unpublished data; for oxidation at C-3 position to form etiocholandione: oral or parenteral; for recovery in the urine: parenteral routes
[3] = Dissolution of 5β steroid in water or in hydroxypropyl-β-cyclodextrin solution (Examples I-VII); format: physicochemical
Method: 12 milligrams (mg) of Etiocholandione (Steraloids, Inc. New Hampshire) was stirred and shaken with 0.5 ml of water in a test tube.
A 50% solution of hydroxypropyl-β-cyclodextrin was prepared as follows. 5 grams of pyrogen free hydroxypropyl-β-cyclodextrin (sold under the trade name Encapsin, Amaizo, Inc., Hammond, Ind., USA) was weighed on an analytical scale and placed in a graduated cylinder. Water was added with shaking until the volume reached 10 ml.
0.5 ml of the 50% solution of hydroxypropyl-β-cyclodextrin was added to the 0.5 ml of water containing 12 mg of Etiocholandione with additional shaking.
The previous experiment was repeated using a 50% solution of hydroxypropyl-β-cyclodextrin prepared as in Example 1. 50 mg of Etiocholandione was weighed and placed in a test tube. 2 ml of the 50% solution of hydroxypropyl-β-cyclodextrin was added to the test tube with shaking.
4 grams of hydroxypropyl-β-cyclodextrin was dissolved in 7 ml of distilled water to a total volume of 10 ml. Each ml of stock solution contained 0.4 g of solution hydroxypropyl-β-cyclodextrin. 20 mg of 3-β-hydroxy androstan-17-one (β-etiocholanolone) was shaken with 1 ml of the freshly prepared stock solution.
The same experiment as in example III was performed except that 40 mg of β-etiocholanolone was added to the stock solution of hydroxypropyl-β-cyclodextrin.
The same experiment as in example III was performed except that 20 mg of Etiocholandione was added to the stock solution of hydroxypropyl-β-cyclodextrin.
The same experiment as in example V was performed except that 40 mg of Etiocholandione was added to the stock solution of hydroxypropyl-β-cyclodextrin.
The same experiment as in Example V was performed except 80 mg or 250 mg ED was added to the stock solution.

obese subjects = settings: oral, cited from earlier work
[4] = system: genetically obese and diabetic mice; settings: cited from earlier work; for effectiveness relative to DHEA in preventing development of diabetes: C57BL/KsJ-db/db diabetic mice; for blood sugar / effect on the pancreas (granulation of islet cells) / plasma insulin concentrations: Coleman 1984
Prader-Willi Syndrome = settings: cited from earlier work
[5] = cited from earlier work; for influence on stabilization of mitomycin-C: acidic aqueous media, pH ranges studied
[6] = cited from earlier work; for pyrogenic reaction: intramuscular injection
auto-immune diseases = settings: cited from earlier work
aplastic anemia patients = settings: cited from earlier work; for patients with hematologic responses lasting longer than six months: of 43 patients treated with either α- and/or β ET, im
genetically obese mice = settings: supplied in the diet, diabetic genetically obese mice; cited from earlier work
[7] = dissolved solution in hydroxypropyl-β-cyclodextrin, 400 NM, against water blank

C[C@]12CCC(=O)C[C@H]1CC[C@@H]1[C@@H]2CC[C@]2(C)C(=O)CC[C@@H]12 [ED]
optical density (OD) [1, 7]: 0.12
optical density (OD) ([1]; hydroxypropyl-β-cyclodextrin solution containing 80 mg of ED, 499 NM): 1.2
serum levels of α ET after administering ED ([2]; in vivo): high levels of α ET can be achieved in the serum
conversion in serum [2]: quickly converted almost exclusively to α ET
dissolution in water ([3]; 12 mg in 0.5 ml of water, after 5 minutes): Appreciable quantities of compound remained out of solution
appearance of solution ([3]; 12 mg in 1 ml of 25% hydroxypropyl-β-cyclodextrin): A clear solution was obtained
time to complete dissolution ([3]; 20 mg in 1 ml stock solution (0.4 g/ml hydroxypropyl-β-cyclodextrin), room temperature, occasional shaking): ≤ 6 h
time to complete dissolution ([3]; 40 mg in 1 ml stock solution (0.4 g/ml hydroxypropyl-β-cyclodextrin)): ≤ 24 h
appearance of solution ([3]; 50 mg in 2 ml of 50% hydroxypropyl-β-cyclodextrin): clear solution with no accumulation of crystals
time to dissolution ([3]; 50 mg in 2 ml of 50% hydroxypropyl-β-cyclodextrin, with shaking): Within one minute
complete dissolution ([3]; 80 mg added to stock solution (0.4 g/ml hydroxypropyl-β-cyclodextrin)): In neither case did the ED completely dissolve
complete dissolution ([3]; 250 mg added to stock solution (0.4 g/ml hydroxypropyl-β-cyclodextrin)): In neither case did the ED completely dissolve
mean fat loss of the initial body fat content (obese subjects; 10-week period): about 5%
weight and body fat loss vs placebo (obese subjects; 14 subjects): lost significantly more weight and body fat
fat loss (obese subjects; four grams per day): significant fat loss
mean weight loss (obese subjects; four grams per day): 2.8±5.5 kilograms
mean weight loss normalized to body fat (obese subjects; four grams per day): 0.5±0.91 kilograms per week per 100 kilograms of body fat
subjective or objective side effects (obese subjects): no significant subjective or objective side effects

C[C@]12CC[C@@H](O)C[C@@H]1CC[C@@H]1[C@@H]2CC[C@]2(C)C(=O)CC[C@@H]12 [androsterone, reference compound]
effectiveness relative to DHEA in preventing development of diabetes [4]: but not androsterone or epiandrosterone

C[C@]12CC[C@H](O)C[C@@H]1CC[C@@H]1[C@@H]2CC[C@]2(C)C(=O)CC[C@@H]12 [epiandrosterone, reference compound]
effectiveness relative to DHEA in preventing development of diabetes [4]: but not androsterone or epiandrosterone

C[C@]12CC[C@@H](O)C[C@H]1CC[C@@H]1[C@@H]2CC[C@]2(C)C(=O)CC[C@@H]12 [etiocholanolone]
weight change in treated individuals (Prader-Willi Syndrome): either weight loss or a decrease in the rate of weight gain

COC[C@H]1O[C@@H]2O[C@H]3[C@H](O)[C@@H](OC)[C@@H](O[C@H]4[C@H](O)[C@@H](OC)[C@@H](O[C@H]5[C@H](O)[C@@H](OC)[C@@H](O[C@H]6[C@H](O)[C@@H](OC)[C@@H](O[C@H]7[C@H](O)[C@@H](OC)[C@@H](O[C@H]8[C@H](O)[C@@H](OC)[C@@H](O[C@H]1[C@H](O)[C@H]2OC)O[C@@H]8COC)O[C@@H]7COC)O[C@@H]6COC)O[C@@H]5COC)O[C@@H]4COC)O[C@@H]3COC [heptakis-(2,6,-di-O-methyl)-β- cyclodextrin]
influence on stabilization of mitomycin-C [5]: no influence on stabilization of mitomycin-C pH degradation

C[C@]12C=CC(=O)C=C1CC[C@@H]1[C@@H]2[C@@H](O)C[C@@]2(C)[C@H]1CC[C@]2(O)C(=O)CO [prednisolone, reference compound]
suppression of local irritation ([6]; minimal doses of 10 mg, with β-ET): sufficient to suppress any local irritation

C[C@]12C=CC(=O)C=C1CC[C@@H]1[C@@H]2C(=O)C[C@@]2(C)[C@H]1CC[C@]2(O)C(=O)CO [prednisone]
side effects (auto-immune diseases; in vivo): fluid retention and dramatic loss of bone or osteoporosis
symptoms of auto-immune diseases (auto-immune diseases; ulcerative colitis, Chrone's disease, rheumatoid arthritis): effective in reducing the symptoms

C[C@]12CC[C@@H](O)C[C@H]1CC[C@@H]1[C@@H]2CC[C@]2(C)C(=O)CC[C@@H]12 [α ET]
effectiveness relative to DHEA in preventing development of diabetes [4]: four times more effective than DHEA
blood sugar [4]: reduce blood sugar
effect on the pancreas (granulation of islet cells) [4]: protective effect on the pancreas
plasma insulin concentrations [4]: increased plasma insulin concentrations
oxidation at C3 position ([2]; IV, human subjects, isotopic ratio studies): rapidly oxidized and re-reduced
urinary excretion ([2]; normal individuals, endogenous): 3-5 mg per day
oxidation at C-3 position to form etiocholandione [2]: rapidly oxidized at the C-3 position
recovery in the urine [2]: almost exclusively α ET conjugates
patients with hematologic responses lasting longer than six months (aplastic anemia patients): 17
pyrogenic reaction [6]: acute pyrogenic reactions; also recorded: pyrogenic reaction and notable patient discomfort
anti-obesity effect (genetically obese mice): anti-obesity properties
development of obesity (genetically obese mice): can prevent and arrest the development of obesity
weight reduction after obesity (genetically obese mice): facilitate weight reduction after obesity

OC[C@H]1O[C@@H]2O[C@H]3[C@H](O)[C@@H](O)[C@@H](O[C@H]4[C@H](O)[C@@H](O)[C@@H](O[C@H]5[C@H](O)[C@@H](O)[C@@H](O[C@H]6[C@H](O)[C@@H](O)[C@@H](O[C@H]7[C@H](O)[C@@H](O)[C@@H](O[C@H]1[C@H](O)[C@H]2O)O[C@@H]7CO)O[C@@H]6CO)O[C@@H]5CO)O[C@@H]4CO)O[C@@H]3CO [α-cyclodextrin]
influence on stabilization of mitomycin-C [5]: no influence on stabilization of mitomycin-C pH degradation

C[C@]12CC[C@H](O)C[C@H]1CC[C@@H]1[C@@H]2CC[C@]2(C)C(=O)CC[C@@H]12 [β ET, 3-β-hydroxy androstan-17-one]
effectiveness relative to DHEA in preventing development of diabetes [4]: four times more effective than DHEA
blood sugar [4]: reduce blood sugar
effect on the pancreas (granulation of islet cells) [4]: protective effect on the pancreas
plasma insulin concentrations [4]: increased plasma insulin concentrations
optical density (OD) [1, 7]: 0.12
conversion in serum [2]: quickly converted almost exclusively to α ET
oxidation at C-3 position to form etiocholandione [2]: rapidly oxidized at the C-3 position
recovery in the urine [2]: almost exclusively α ET conjugates
patients with hematologic responses lasting longer than six months (aplastic anemia patients): 17
hematologic recovery in non-responders to α ET (aplastic anemia patients; treated with β-ET): three patients who did not respond to α ET had a hematologic recovery
pyrogenic reaction [6]: little pyrogenic effect
anti-obesity effect (genetically obese mice): anti-obesity properties
development of obesity (genetically obese mice): can prevent and arrest the development of obesity
weight reduction after obesity (genetically obese mice): facilitate weight reduction after obesity

OC[C@H]1O[C@@H]2O[C@H]3[C@H](O)[C@@H](O)[C@@H](O[C@H]4[C@H](O)[C@@H](O)[C@@H](O[C@H]5[C@H](O)[C@@H](O)[C@@H](O[C@H]6[C@H](O)[C@@H](O)[C@@H](O[C@H]7[C@H](O)[C@@H](O)[C@@H](O[C@H]8[C@H](O)[C@@H](O)[C@@H](O[C@H]1[C@H](O)[C@H]2O)O[C@@H]8CO)O[C@@H]7CO)O[C@@H]6CO)O[C@@H]5CO)O[C@@H]4CO)O[C@@H]3CO [β-cyclodextrin]
influence on stabilization of mitomycin-C [5]: no influence on stabilization of mitomycin-C pH degradation

OC[C@H]1O[C@@H]2O[C@H]3[C@H](O)[C@@H](O)[C@@H](O[C@H]4[C@H](O)[C@@H](O)[C@@H](O[C@H]5[C@H](O)[C@@H](O)[C@@H](O[C@H]6[C@H](O)[C@@H](O)[C@@H](O[C@H]7[C@H](O)[C@@H](O)[C@@H](O[C@H]8[C@H](O)[C@@H](O)[C@@H](O[C@H]9[C@H](O)[C@@H](O)[C@@H](O[C@H]1[C@H](O)[C@H]2O)O[C@@H]9CO)O[C@@H]8CO)O[C@@H]7CO)O[C@@H]6CO)O[C@@H]5CO)O[C@@H]4CO)O[C@@H]3CO [γ-cyclodextrin]
stabilizing effect on mitomycin ([5]; acidic media at pH above 1): measurable stabilizing effect on mitomycin

dimethyl-β- cyclodextrin
influence on stabilization of mitomycin-C [5]: no influence on stabilization of mitomycin-C pH degradation
